Experimental findings from patent US6784201B2, “Benzothiepines having activity as inhibitors of ileal bile acid transport and taurocholate uptake” (G.D. Searle & Company, priority 1994, dated 2004) are described below.

Read-outs that look alike come from different tables or passages of the source.

The target of test [1] is T1, human IBAT (Homo sapiens, UniProt Q12908).
T1 construct: expressed in transfected cells; host or cells: Baby hamster kidney (BHK) cells, clone H14
T1 sequence (Q12908 1-348): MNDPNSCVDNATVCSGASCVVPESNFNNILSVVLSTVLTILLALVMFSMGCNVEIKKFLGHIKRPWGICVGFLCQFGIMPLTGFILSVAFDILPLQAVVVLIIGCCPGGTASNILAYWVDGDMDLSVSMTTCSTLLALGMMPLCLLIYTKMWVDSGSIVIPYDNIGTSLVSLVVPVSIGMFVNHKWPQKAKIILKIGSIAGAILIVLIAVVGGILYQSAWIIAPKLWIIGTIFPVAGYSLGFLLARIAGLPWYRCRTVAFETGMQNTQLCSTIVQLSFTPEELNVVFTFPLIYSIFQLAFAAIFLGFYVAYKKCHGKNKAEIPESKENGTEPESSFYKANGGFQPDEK
As to the kind of experiment: In vitro assay of IBAT-mediated uptake of [14C]-taurocholate (TC) in H14 cells. Format: cell-based. In outline:
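BHK cells stably expressing human IBAT (H14) were incubated 2 h at 37° C with compound and 3 μM final [14C]-taurocholate in DMEM (4.5 g/L glucose) plus 0.2% fatty acid-free BSA. After cold PBS washes, cell-associated radioactivity was measured by scintillation counting.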

Test [2] deals with H14 cells. As to the kind of experiment: In vitro assay of uptake of [14C]-alanine. The conditions noted are these: Mesocricetus auratus. It is filed as cell-based, hamster. As for the experimental part:
Baby hamster kidney cells (BHK) transfected with the cDNA of human IBAT (H14 cells) are seeded at 60,000 cells/well in 96 well Top-Count tissue culture plates for assays run within in 24 hours of seeding, 30,000 cells/well for assays run within 48 hours, and 10,000 cells/well for assays run within 72 hours.
On the day of assay, the cell monolayer is gently washed once with 100 μl assay buffer (Dulbecco's Modified Eagle's medium with 4.5 g/L glucose+0.2% (w/v) fatty acid free bovine serum albumin-(FAF)BSA). To each well 50 μl of a two-fold concentrate of test compound in assay buffer is added along with 50 μl of 6 μM [^14C]-taurocholate in assay buffer (final concentration of 3 μM [^14C]-taurocholate). The cell culture plates are incubated 2 hours at 37° C. prior to gently washing each well twice with 100 μl 4° C. Dulbecco's phosphate-buffered saline (PBS) containing 0.2% (w/v) (FAF)BSA. The wells are then gently washed once with 100 μl 4° C. PBS without (FAF)BSA. To each 200 μl of liquid scintillation counting fluid is added, the plates are heat sealed and shaken for 30 minutes at room temperature prior to measuring the amount of radioactivity in each well on a Packard Top-Count instrument.
In Vitro Assay of Compounds that Inhibit Uptake of [^14C3-Alanine
The alanine uptake assay is performed in an identical fashion to the taurocholate assay, with the exception that labeled alanine is substituted for the labeled taurocholate.

For test [3], the system named is Rat Ileal Uptake of [14C]-Taurocholate. As to the kind of experiment: In vivo assay of rat ileal uptake of [14C]-taurocholate into bile (ileal loop). The conditions noted are these: for EC50: rat ileal loop, read-out: TC-uptake Ileal Loop EC(50); for activity at 100 µM: read-out: % of Control Transport of TC in Rat Ileum @ 0.1 mM. As for the experimental part: In Vivo Assay of Compounds that Inhibit Rat Ileal Uptake of [^14C]-Taurocholate into Bile
(See “Metabolism of 3α,7β-dihydroxy-7α-methyl-5β-cholanoic acid and 3α,7β-dihydroxy-7α-methyl-5β-cholanoic acid in hamsters” in Biochimica et Biophysica Acta 833 (1985) 196-202 by Une et al.)
Male wistar rats (200-300 g) are anesthetized with inactin @100 mg/kg. Bile ducts are cannulated with a 10″ length of PE10 tubing. The small intestine is exposed and laid out on a gauze pad. A canulae (⅛″ luer lock, tapered female adapter) is inserted at 12 cm from the junction of the small intestine and the cecum. A slit is cut at 4 cm from this same junction (utilizing a 8 cm length of ileum). 20 ml of warm Dulbecco's phosphate buffered saline, pH 6.5 (PBS) is used to flush out the intestine segment. The distal opening is cannulated with a 20 cm length of silicone tubing (0.02″ I.D.×0.037″ O.D.). The proximal cannulae is hooked up to a peristaltic pump and the intestine is washed for 20 min with warm PBS at 0.25 ml/min. Temperature of the gut segment is monitored continuously. At the start of the experiment, 2.0 ml of control sample ([^14C]-taurocholate @ 0.05 mi/ml with 5 mM cold taurocholate) is loaded into the gut segment with a 3 ml syringe and bile sample collection is begun. Control sample is infused at a rate of 0.25 ml/min for 21 min. Bile samples fractions are collected every 3 minute for the first 27 minutes of the procedure. After the 21 min of sample infusion, the ileal loop is washed out with 20 ml of warm PBS (using a 30 ml syringe), and then the loop is washed out for 21 min with warm PBS at 0.25 ml/min. A second perfusion is initiated as described above but this with test compound being administered as well (21 min administration followed by 21 min of wash out) and bile sampled every 3 min for the first 27 min. If necessary, a third perfusion is performed as above that typically contains the control sample.

Test [4] has as its system Rabbit Ileal brush border membranes. Briefly: [3H]taurocholate uptake in rabbit brush border membrane vesicles (BBMV). Format: biochemical. The conditions noted are these: read-out: TC-uptake (BBMV) IC(50). As for the experimental part: [^3H]Taurocholate Uptake in Rabbit Brush Border Membrane Vesicles (BBMV)
Rabbit Ileal brush border membranes were prepared from frozen iheal mucosa by the calcium precipitation method describe by Malathi et al. (Reference: (1979) Biochimica Biophysica Acta, 554, 259). The method for measuring taurocholate was essentially as described by Kramer et al. (Reference: (1992) Biochimica Biophysica Acta, 1111, 93) except the assay volume was 200 μl instead of 100 μl.

The target in test [5] is ACAT. Briefly: Acyl-CoA; cholesterol acyl transferase (ACAT), hamster liver microsomes. It is filed as biochemical. As to conditions: read-out: ACAT (liver) IC(50). As for the experimental part:
Acyl-CoA; Cholesterol Acyl Transferase (ACAT)
Hamster liver and rat intestinal microsomes were prepared from tissue as described previously (Reference: (1980) J. Biol. Chem. 255, 9098) and used as a source of ACAT enzyme. The assay consisted of a 2.0 ml incubation containing 24 μM Oleoyl-CoA (0.05 μCi) in a 50 mM sodium phosphate, 2 mM DTT ph 7.4 buffer containing 0.25% BSA and 200 μg of microsomal protein. The assay was initiated by the addition of oleoyl-CoA. The reaction went for 5 min at 37° C. and was terminated by the addition of 8.0 ml of chloroform/methanol (2:1). […] The chloroform phase was taken to dryness and then spotted on a silica gel 60 TLC plate and developed in hexane/ethyl ether (9:1). The amount of cholesterol ester formed was determined by measuring the amount of radioactivity incorporated into the cholesterol oleate spot on the TLC plate with a Packard instaimager.
On the technique in general: Liver microsomes are vesicles of endoplasmic reticulum, rich in cytochrome P450 enzymes.

Setting [6] is: H14 cells, Table 5, read-out: IC50 uM (In vitro Taurocholate Cell Uptake).
Where [7] appears, read: Table 6, read-out: TC-uptake (H14 cells) IC(50).

The term inhibition denotes the relative decrease from the control value, in per cent. Read a high inhibition as a response far below the control. Turning to `CCCC[C@]1(CC)CS(=O)(=O)c2ccccc2[C@@H](c2ccccc2)[C@H]1O` [Example 6d, (3α,4β,5β) 3-Butyl-3-ethyl-4-hydroxy-5-phenyl-2,3,4,5-tetrahydrobenzothiepine-1,1-dioxide], the IC50 in test [1] (setting [6]) was 0.6 µM; in test [1] (setting [7]) it was 0.6 µM; in test [4], 1.5 µM. The compound further registered an inhibition at 100 µM in test [2] of 77.7%. The activity at 150 µM in test [3] (Rattus norvegicus, 0.15 mM, read-out: % of Control Transport of TC in Rat Ileum) was found to be 30.2%. Further, in test [3] (Rattus norvegicus, 0.5 mM, read-out: % of Control Transport of TC in Rat Ileum), the activity at 500 µM was found to be 16.1%. In test [3], the EC50 is 31 µM.

As to `CCCC[C@]1(CC)CS(=O)(=O)c2ccc(NO)cc2[C@@H](c2ccccc2)[C@H]1O` [Example 38, (3α,4β,5β) 3-Butyl-3-ethyl-4-hydroxy-7-hydroxyamino-5-phenyl-2,3,4,5-tetrahydrobenzothiepine-1,1-dioxide], the IC50 was found to be 0.3 µM in test [1] (setting [6]), 0.3 µM in test [1] (setting [7]), 2 µM in test [4] and 15 µM in test [5]. In test [2] (5 μM), this compound registered an inhibition at 5 µM of 11%. In addition, the activity at 100 µM in test [3] (Rattus norvegicus) stood at 20.6%. Moreover, the EC50 in test [3] was 12 µM.

On to `CCCC[C@]1(CC)CS(=O)(=O)c2ccc(OC)cc2[C@@H](c2ccccc2)[C@H]1O` [Example 49, (3α,4β,5β) 3-Butyl-3-ethyl-4-hydroxy-7-methoxy-5-phenyl-2,3,4,5-tetrahydrobenzothiepine-1,1-dioxide], for which the IC50 in test [1] (setting [6]) stood at 0.15 µM; in test [1] (setting [7]), 0.1 µM; in test [5] it was 6 µM. The inhibition at 200 µM in test [2] (200 μM) was determined as 21%. Also, the activity at 100 µM in test [3] (Rattus norvegicus) came to 21.2%. In test [3], the EC50 stood at 12 µM.
